Experimental data from paper PMC8005870, “Membrane Lipid Requirements of the Lysine Transporter Lyp1 from Saccharomyces cerevisiae” (Journal of molecular biology, 2020).

Biological target: T1, Lyp1 (Lyp1-GFP) (Saccharomyces cerevisiae, UniProt P32487)
T1 construct: full-length Lyp1 with C-terminal TEV-GFP-His10 kept, expressed in Pichia pastoris SMD1163, DDM-solubilised, purified by IMAC and FSEC, reconstituted in proteoliposomes
T1 sequence (P32487 1-611): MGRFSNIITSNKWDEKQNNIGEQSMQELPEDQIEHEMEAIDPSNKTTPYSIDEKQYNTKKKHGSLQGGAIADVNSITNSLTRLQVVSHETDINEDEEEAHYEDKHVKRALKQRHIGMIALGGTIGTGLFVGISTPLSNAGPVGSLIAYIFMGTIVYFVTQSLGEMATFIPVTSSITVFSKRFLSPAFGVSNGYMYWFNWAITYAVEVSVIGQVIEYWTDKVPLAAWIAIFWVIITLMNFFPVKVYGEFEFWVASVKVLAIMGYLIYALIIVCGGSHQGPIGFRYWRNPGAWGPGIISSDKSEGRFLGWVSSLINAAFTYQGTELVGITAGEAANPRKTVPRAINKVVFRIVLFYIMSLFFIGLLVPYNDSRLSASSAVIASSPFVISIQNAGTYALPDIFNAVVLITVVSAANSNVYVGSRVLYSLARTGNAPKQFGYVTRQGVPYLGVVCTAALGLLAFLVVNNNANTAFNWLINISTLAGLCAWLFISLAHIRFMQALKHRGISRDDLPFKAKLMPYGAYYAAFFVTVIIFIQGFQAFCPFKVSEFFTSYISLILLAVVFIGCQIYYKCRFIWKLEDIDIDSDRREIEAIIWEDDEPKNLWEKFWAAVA
Assay: lysine transport turnover versus mol% lipid in proteoliposomes
Format: biochemical
Conditions: proton motive force about -160 mV (valinomycin K+ diffusion potential plus acetate gradient), pH 6.0; defined lipid vesicles; POPS titrated in POPS/POPE/ergosterol vesicles; sigmoidal, cooperative lip

## CCCCCCCC/C=C\CCCCCCCC(=O)O[C@H](COC(=O)CCCCCCCCCCCCCCC)COP(=O)(O)OC[C@H](N)C(=O)O [POPS, 1-palmitoyl-2-oleoyl-sn-glycero-3-phosphoserine]
  lysine transport turnover versus mol% lipid in proteoliposomes: We found a sigmoidal relationship between Lyp1 activity and POPS concentration
